We go through three molecules from paper doi:10.1101/2023.08.10.552651v1 (biorxiv, 2023).

Holding throughout (assay): isothermal titration calorimetry
What all share (assay type): binding
Common to all, as to details: Tris-HCl, 150 mM NaCl, pH 7.9-8.0, 20 °C; 30 µM trimer; one-site model
For orientation: ITC needs no label: the signal is the heat of the interaction.

The target of experiment [1] is ScSbtB (SbtB) (Synechocystis sp. PCC 6803, UniProt P73954, K40A).
Experiment [2] has as its target ScSbtB (SbtB) (Synechocystis sp. PCC 6803, UniProt P73954, R46A).
For experiment [3], the target named is ScSbtB (SbtB) (Synechocystis sp. PCC 6803, UniProt P73954, R43A).
Sequence of ScSbtB (SbtB) (Synechocystis sp. PCC 6803, UniProt P73954, R43A) (P73954 2-110 R43A): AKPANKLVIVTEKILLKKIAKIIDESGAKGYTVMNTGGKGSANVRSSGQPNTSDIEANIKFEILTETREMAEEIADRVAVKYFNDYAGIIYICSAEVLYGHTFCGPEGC

Sequence of ScSbtB (SbtB) (Synechocystis sp. PCC 6803, UniProt P73954, K40A) (P73954 2-110 K40A): as the sequence (P73954 2-110 R43A) above, with K39A, A42R counted along it
Sequence of ScSbtB (SbtB) (Synechocystis sp. PCC 6803, UniProt P73954, R46A) (P73954 2-110 R46A): as the sequence (P73954 2-110 R43A) above, with A42R, R45A counted along it

Turning to `Nc1ncnc2c1ncn2[C@@H]1O[C@H](COP(=O)(O)OP(=O)(O)O)[C@@H](O)[C@H]1O` [ADP], the Kd at ScSbtB (SbtB) [1] was 877 µM; on ScSbtB (SbtB) [2] it was 435 µM; at ScSbtB (SbtB) [3], 472 µM.

Turning to `Nc1ncnc2c1ncn2[C@@H]1O[C@H](COP(=O)(O)O)[C@@H](O)[C@H]1O` [AMP], the Kd on ScSbtB (SbtB) [2] is 94.3 µM.

As to `Nc1ncnc2c1ncn2[C@@H]1O[C@H](COP(=O)(O)OP(=O)(O)OP(=O)(O)O)[C@@H](O)[C@H]1O` [ATP], the Kd amounted to 357 µM at ScSbtB (SbtB) [1] and 213 µM on ScSbtB (SbtB) [3].

A word on the Kd: it is the constant that tells how readily two partners part at equilibrium.
